According to patent US20230279016A1, “Tetrahydropyrazolopyrimidines and Related Analogs for Inhibiting YAP/TAZ-TEAD” (THE KATHOLIEKE UNIVERSITEIT LEUVEN, priority 2021, published 2023):

Tests used:
Format in all cases: cell-based
[1] = tested on: NCI-H226 mesothelioma cell line; assay: Mesothelioma cell line proliferation assay, NCI-H226; conditions: NCI-H226, 6 days with compound, cell viability by ATPlite
Protocol: (§1) Mesothelioma cell lines, NCI-H226 and NCI-H2052 (all sourced from the ATCC cell culture collection) are plated in 96-well plates (Corning® 96 Well White Polystyrene Microplate clear flat bottom, white polystyrene (TC-Treated)), at 1500 cells/well in full medium (RPMI 1640 ATCC modification with L-glutamine, HEPES, Phenol Red, Sodium Pyruvate, High glucose, Low sodium bicarbonate and 10% fetal bovine serum). Cells are incubated overnight at 37° C. in an incubator with 5% CO2. Then compounds, dissolved in DMSO, are added in dose-response. Cells are incubated with compound dilutions for another 6 days at 37° C. in an incubator with 5% CO2. Cell viability is quantitated using the ATPlite kit (Perkin-Elmer) and the luminescence is read-out using an Envision instrument (Perkin-Elmer). The amount of relative light units produced using the ATPlite kit is used to calculated percent of inhibition.
(§2) The activities of example compounds tested are depicted in the table below. The activity ranges A, B and C refer to EC50 values in the mesothelioma cell line proliferation assay as described as follows: “A”: EC50 <1 μM; “B” : 1 μM EC50 ≤10 μM and “C” : EC50 >10 μM. NT: not tested.

[2] = tested on: NCI-H2052 mesothelioma cell line; assay: Mesothelioma cell line proliferation assay, NCI-H2052; conditions: NCI-H2052, 6 days with compound, cell viability by ATPlite
Protocol: as §1, §2

[3] = tested on: YAP/TAZ-TEAD transcription; assay: Reporter gene assay for measuring the inhibition of YAP/TAZ-TEAD transcription (TEAD-responsive element luciferase reporter in Hek293T cells); conditions: Hek293T cells transiently transfected with TEAD-responsive element luciferase reporter, 24 hours incubation
Procedure, shortened: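 Hek293T cells transiently transfected with TEAD-responsive luciferase reporter, exposed to compound for 24 h at 37° C/5% CO2, then read by luminescence. Percent inhibition normalized to vehicle (0%) and positive control inhibitor (100%); EC50 reported as activity ranges.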

With `C=CC(=O)NCC1CN(c2ccc(SC(F)(F)F)cc2)c2ccnn2C1` (single isomer, unassigned) [Cpd. No. 020-En1, (R)- or (S)-N-((4-(4-((trifluoromethyl)thio)phenyl)-4,5,6,7-tetrahydropyrazolo[1,5-a]pyrimidin-6-yl)methyl)acrylamide] the EC50 [1] was < 1000 nM, the EC50 ([2]; Homo sapiens, NCI-H2052, 144 h) was < 1000 nM and the EC50 [3] was < 1000 nM.
For `C=CC(=O)NCC1Cc2c(cnn2C(F)F)N(c2ccc(C(F)(F)F)cc2)C1` (single isomer, unassigned) [Cpd. No. 084-En1, (R)- or (S)-N-((1-(difluoromethyl)-4-(4-(trifluoromethyl)phenyl)-4,5,6,7-tetrahydro-1H-pyrazolo[4,3-b]pyridin-6-yl)methyl)acrylamide], the EC50 ([1]; Homo sapiens, NCI-H226, 144 h) was < 1000 nM, the EC50 ([2]; Homo sapiens, NCI-H2052, 144 h) was < 1000 nM and the EC50 ([3]; Homo sapiens, HEK-293T, 24 h) was < 1000 nM.
With `C=CC(=O)NCC1CN(c2ccc(OC(F)(F)F)cc2F)c2ccnn2C1` (single isomer, unassigned) [Cpd. No. 019-En1, (R)- or (S)-N-((4-(2-fluoro-4-(trifluoromethoxy)phenyl)-4,5,6,7-tetrahydropyrazolo[1,5-a]pyrimidin-6-yl)methyl)acrylamide] the EC50 ([1]; Homo sapiens, NCI-H226, 144 h) was < 1000 nM, the EC50 [2] was < 1000 nM and the EC50 ([3]; Homo sapiens, HEK-293T, 24 h) was < 1000 nM.
In the case of `C=CC(=O)NCC1CN(c2ccc(C(F)(F)F)cc2)c2ccnn2C1` (stereo not drawn) [Cpd. No. 002, N-((4-(4-(trifluoromethyl)phenyl)-4,5,6,7-tetrahydropyrazolo[1,5-a]pyrimidin-6-yl)methyl)acrylamide], the EC50 ([1]; Homo sapiens, NCI-H226, 144 h) is reported as < 1000 nM, the EC50 ([2]; Homo sapiens, NCI-H2052, 144 h) is reported as < 1000 nM and the EC50 ([3]; Homo sapiens, HEK-293T, 24 h) is reported as < 1000 nM.
`C=CC(=O)NCC1CN(c2ccc(C(F)(F)F)cn2)c2ccnn2C1` (single isomer, unassigned) [Cpd. No. 008-En1, (R)- or (S)-N-((4-(5-(trifluoromethyl)pyridin-2-yl)-4,5,6,7-tetrahydropyrazolo[1,5-a]pyrimidin-6-yl)methyl)acrylamide] was tested, and the EC50 ([1]; Homo sapiens, NCI-H226, 144 h) was < 1000 nM, the EC50 ([2]; Homo sapiens, NCI-H2052, 144 h) was < 1000 nM and the EC50 ([3]; Homo sapiens, HEK-293T, 24 h) was < 1000 nM.
For `C=CC(=O)NCC1CN(c2ccc(Cl)cc2)c2ccnn2C1` (stereo not drawn) [Cpd. No. 005, N-((4-(4-chlorophenyl)-4,5,6,7-tetrahydropyrazolo[1,5-a]pyrimidin-6-yl)methyl)acrylamide], the EC50 ([1]; Homo sapiens, NCI-H226, 144 h) was < 1000 nM, the EC50 ([2]; Homo sapiens, NCI-H2052, 144 h) was < 1000 nM and the EC50 ([3]; Homo sapiens, HEK-293T, 24 h) was < 1000 nM.
`C=CC(=O)NCC1Cc2c(cnn2C)N(c2ccc(C(F)(F)F)cc2)C1` (stereo not drawn) [Cpd. No. 068, N-((1-methyl-4-(4-(trifluoromethyl)phenyl)-4,5,6,7-tetrahydro-1H-pyrazolo[4,3-b]pyridin-6-yl)methyl)acrylamide] was tested, and the EC50 ([1]; Homo sapiens, NCI-H226, 144 h) was < 1000 nM, the EC50 ([2]; Homo sapiens, NCI-H2052, 144 h) was < 1000 nM and the EC50 ([3]; Homo sapiens, HEK-293T, 24 h) was < 1000 nM.
`C=CC(=O)NCC1CN(c2ccc(OC(F)(F)F)cc2)c2ccnn2C1` (single isomer, unassigned) [Cpd. No. 011-En2, (R)- or (S)-N-((4-(4-(trifluoromethoxy)phenyl)-4,5,6,7-tetrahydropyrazolo[1,5-a]pyrimidin-6-yl)methyl)acrylamide] was tested, and the EC50 [1] was < 1000 nM, the EC50 [2] was > 10000 nM and the EC50 [3] was < 1000 nM.
With `C=CC(=O)NCC1CN(c2ccc(OC(F)F)cc2)c2ccnn2C1` (single isomer, unassigned) [Cpd. No. 012-En1, (R)- or (S)-N-((4-(4-(difluoromethoxy)phenyl)-4,5,6,7-tetrahydropyrazolo[1,5-a]pyrimidin-6-yl)methyl)acrylamide] the EC50 [1] was < 1000 nM, the EC50 [2] was < 1000 nM and the EC50 [3] was < 1000 nM.
`C=CC(=O)NCC1Cc2nn(C(F)F)cc2N(c2ccc(C(F)(F)F)cc2)C1` (single isomer, unassigned) [Cpd. No. 085-En2, (R)- or (S)-N-((2-(difluoromethyl)-4-(4-(trifluoromethyl)phenyl)-4,5,6,7-tetrahydro-2H-pyrazolo[4,3-b]pyridin-6-yl)methyl)acrylamide] was tested, and the EC50 ([1]; Homo sapiens, NCI-H226, 144 h) was < 1000 nM, the EC50 ([2]; Homo sapiens, NCI-H2052, 144 h) was < 1000 nM and the EC50 ([3]; Homo sapiens, HEK-293T, 24 h) was < 1000 nM.
With `C=CC(=O)NCC1CN(c2ccc(S(F)(F)(F)(F)F)cc2)c2ccnn2C1` (single isomer, unassigned) [Cpd. No. 023-En1, (R)- or (S)-N-((4-(4-(pentafluoro-l6-sulfaneyl)phenyl)-4,5,6,7-tetrahydropyrazolo[1,5-a]pyrimidin-6-yl)methyl)acrylamide] the EC50 [1] was < 1000 nM, the EC50 [2] was < 1000 nM and the EC50 [3] was < 1000 nM.
`C=CC(=O)NCC1Cc2c(cnn2C(F)F)N(c2ccc(C(F)(F)F)cc2)C1` (single isomer, unassigned) [Cpd. No. 084-En2, (R)- or (S)-N-((1-(difluoromethyl)-4-(4-(trifluoromethyl)phenyl)-4,5,6,7-tetrahydro-1H-pyrazolo[4,3-b]pyridin-6-yl)methyl)acrylamide] was tested, and the EC50 [1] was < 1000 nM, the EC50 [2] was < 1000 nM and the EC50 [3] was < 1000 nM.
`C=CC(=O)NCC1CN(Cc2ccc(C(F)(F)F)cc2)c2ccnn2C1` (stereo not drawn) [Cpd. No. 048, N-((4-(4-(trifluoro-methyl)benzyl)-4,5,6,7-tetrahydropyrazolo[1,5-a]pyrimidin-6-yl)methyl)acrylamide] was tested, and the EC50 ([1]; Homo sapiens, NCI-H226, 144 h) was < 1000 nM, the EC50 ([2]; Homo sapiens, NCI-H2052, 144 h) was < 1000 nM and the EC50 ([3]; Homo sapiens, HEK-293T, 24 h) was < 1000 nM.
With `C=CC(=O)NCC1CN(c2ccc(C(F)(F)F)cc2)c2cc(CC3CC3)nn2C1` (stereo not drawn) [Cpd. No. 032, N-((2-(cyclopropylmethyl)-4-(4-(trifluoromethyl)phenyl)-4,5,6,7-tetrahydropyrazolo[1,5-a]pyrimidin-6-yl)methyl)acrylamide] the EC50 ([1]; Homo sapiens, NCI-H226, 144 h) was < 1000 nM, the EC50 ([2]; Homo sapiens, NCI-H2052, 144 h) was < 1000 nM and the EC50 ([3]; Homo sapiens, HEK-293T, 24 h) was < 1000 nM.
For `C=CC(=O)NCC1CN(c2ccc(C(C)C)cc2)c2ccnn2C1` (stereo not drawn) [Cpd. No. 013, N-((4-(4-isopropylphenyl)-4,5,6,7-tetrahydropyrazolo[1,5-a]pyrimidin-6-yl)methyl)acrylamide], the EC50 ([1]; Homo sapiens, NCI-H226, 144 h) was < 1000 nM, the EC50 ([2]; Homo sapiens, NCI-H2052, 144 h) was < 1000 nM and the EC50 ([3]; Homo sapiens, HEK-293T, 24 h) was < 1000 nM.
For `C=CC(=O)NCC1CN(c2ccc(C(F)(F)F)cc2)c2cc(C)nn2C1` (stereo not drawn) [Cpd. No. 029, N-((2-methyl-4-(4-(trifluoromethyl)phenyl)-4,5,6,7-tetrahydropyrazolo[1,5-a]pyrimidin-6-yl)methyl)acrylamide], the EC50 ([1]; Homo sapiens, NCI-H226, 144 h) was < 1000 nM, the EC50 ([2]; Homo sapiens, NCI-H2052, 144 h) was < 1000 nM and the EC50 ([3]; Homo sapiens, HEK-293T, 24 h) was < 1000 nM.
For `C=CC(=O)NCC1CN(c2ccc(C(F)(F)F)cc2)c2c(Br)cnn2C1` (stereo not drawn) [Cpd. No. 058, N-((3-bromo-4-(4-(trifluoromethyl)phenyl)-4,5,6,7-tetrahydropyrazolo[1,5-a]pyrimidin-6-yl)-methyl)acrylamide], the EC50 ([1]; Homo sapiens, NCI-H226, 144 h) was < 1000 nM, the EC50 ([2]; Homo sapiens, NCI-H2052, 144 h) was 1000 to 10000 nM and the EC50 ([3]; Homo sapiens, HEK-293T, 24 h) was < 1000 nM.
`C#CC(=O)NCC1CN(c2ccc(C(F)(F)F)cc2)c2ccnn2C1` (stereo not drawn) [Cpd. No. 038, N-((4-(4-(trifluoromethyl)phenyl)-4,5,6,7-tetrahydropyrazolo[1,5-a]pyrimidin-6-yl)methyl)propiolamide] was tested, and the EC50 ([1]; Homo sapiens, NCI-H226, 144 h) was 1000 to 10000 nM, the EC50 ([2]; Homo sapiens, NCI-H2052, 144 h) was < 1000 nM and the EC50 ([3]; Homo sapiens, HEK-293T, 24 h) was < 1000 nM.
For `C=CC(=O)NCC1CN(c2ccc(C(F)(F)F)cc2)c2cc(C3CC3)nn2C1` (stereo not drawn) [Cpd. No. 031, N-((2-cyclopropyl-4-(4-(trifluoromethyl)phenyl)-4,5,6,7-tetrahydropyrazolo[1,5-a]pyrimidin-6-yl)methyl)acrylamide], the EC50 ([1]; Homo sapiens, NCI-H226, 144 h) was < 1000 nM, the EC50 ([2]; Homo sapiens, NCI-H2052, 144 h) was < 1000 nM and the EC50 ([3]; Homo sapiens, HEK-293T, 24 h) was < 1000 nM.
For `C=CC(=O)NCC1CN(c2ccc(OC(F)F)cc2)c2ccnn2C1` (stereo not drawn) [Cpd. No. 012, N-((4-(4-(difluoromethoxy)phenyl)-4,5,6,7-tetrahydropyrazolo[1,5-a]pyrimidin-6-yl)methyl)acrylamide], the EC50 ([1]; Homo sapiens, NCI-H226, 144 h) was < 1000 nM, the EC50 [2] was < 1000 nM and the EC50 ([3]; Homo sapiens, HEK-293T, 24 h) was < 1000 nM.
For `C=CC(=O)NCC1CN(c2ccc(C(F)(F)F)cc2F)c2ccnn2C1` (single isomer, unassigned) [Cpd. No. 016-En1, (R)- or (S)-N-((4-(2-fluoro-4-(trifluoromethyl)phenyl)-4,5,6,7-tetrahydropyrazolo[1,5-a]pyrimidin-6-yl)methyl)acrylamide], the EC50 [1] was < 1000 nM, the EC50 [2] was < 1000 nM and the EC50 [3] was < 1000 nM.
In the case of `C=CC(=O)NCC1CNc2c(CC#Cc3ccccc3)cnn2C1` (stereo not drawn) [Cpd. No. 059, N-((3-(3-phenylprop-2-yn-1-yl)-4,5,6,7-tetrahydropyrazolo[1,5-a]pyrimidin-6-yl)-methyl)acrylamide], the EC50 ([1]; Homo sapiens, NCI-H226, 144 h) is reported as > 10000 nM, the EC50 ([2]; Homo sapiens, NCI-H2052, 144 h) is reported as > 10000 nM and the EC50 ([3]; Homo sapiens, HEK-293T, 24 h) is reported as < 1000 nM.
With `C=CC(=O)NCC1CN(c2ccc(OC(F)(F)F)cc2)c2ccnn2C1` (single isomer, unassigned) [Cpd. No. 011-En1, (R)- or (S)-N-((4-(4-(trifluoromethoxy)phenyl)-4,5,6,7-tetrahydropyrazolo[1,5-a]pyrimidin-6-yl)methyl)acrylamide] the EC50 [1] was < 1000 nM, the EC50 [2] was < 1000 nM and the EC50 [3] was < 1000 nM.
In the case of `C=CC(=O)NCC1CN(c2ccc(S(F)(F)(F)(F)F)cc2)c2ccnn2C1` (single isomer, unassigned) [Cpd. No. 023-En2, (R)- or (S)-N-((4-(4-(pentafluoro-l6-sulfaneyl)phenyl)-4,5,6,7-tetrahydropyrazolo[1,5-a]pyrimidin-6-yl)methyl)acrylamide], the EC50 [1] is reported as < 1000 nM, the EC50 [2] is reported as < 1000 nM and the EC50 [3] is reported as < 1000 nM.
